In patent US12723023B2, “Ionizable cationic lipids for RNA delivery” (Arcturus Therapeutics, Inc., priority 2021, dated 2026):

Assays:
[1] = system: hEPO; assay: hEPO mRNA expression evaluation (hEPO-LNPs, serum hEPO by ELISA); assay type: in vivo, Balb/c mice; conditions: serum after 6 hr; for EPO exprssn (ng/mL) 0.03 mpk: 0.03 mpk hEPO-LNP intravenously; for EPO exprssn (ng/mL) 0.1 mpk: 0.1 mpk hEPO-LNP intravenously
Protocol: Lipid formulations comprising a hEPO mRNA below were evaluated for their ability to express hEPO in vivo according to the protocol of this example. All animal experiments were conducted using institutionally-approved protocols (IACUC). In this protocol, female Balb/c mice at least 6-8 weeks of age were purchased from Charles River Laboratory. The mice were intravenously injected with hEPO-LNPs via the tail vein with one of two dose levels of hEPO (0.1 and 0.03 mg/kg). After 6 hr, blood was collected with serum separation tubes, and the serum was isolated by centrifugation. Serum hEPO levels were then measured using an ELISA assay (Human Erythropoietin Quantikine IVD ELISA Kit, R&D Systems, Minneapolis, MD).

[2] = Mouse plasma stability; assay type: in vitro ADME, CD-1 mouse; conditions: 1 μM lipid
Protocol: Lipid stock solution was prepared by dissolution of the lipid in isopropanol at the concentration of 5 mg/mL. A requisite volume of the lipid-isopropanol solution was then diluted to 100 μM concentration at a total volume of 1.0 mL with in 50:50 (v/v) ethanol/water. Ten microliters of this 100 μM solution was spiked into 1.0 mL of mouse plasma (BioIVT, Cat. No.: MSE00PLNHUNN, CD-1 mouse, anticoagulant: sodium heparin, not filtered) that was pre-warmed to 37° C. and was stirred at 50 rpm with a magnetic stir bar. The starting concentration of lipids in plasma was thus 1 μM. At time points 0, 15, 30, 45, 60 and 120 min, 0.1 mL of the plasma was withdrawn from the reaction mixture and the protein was precipitated by adding 0.9 mL of ice-cold 4:1 (v/v) acetonitrile/methanol with 1 μg/mL of a selected internal standard lipid added. After filtration through a 0.45 micron 96-well filtering plate, the filtrates were analyzed by LC-MS (Thermo Fisher's Vanquish UHPLC-LTQ XL linear ion trap Mass Spectrometer); Waters XBridge BEH Shield RP18 2.5 micron (2.1×100 mm) column with its matching guard column. Mobile phase A was 0.1% formic acid in water, and mobile phase B was 0.1% formic acid in 1:1 (v/v) acetonitrile/methanol. Flow rate was 0.5 ml/min. Elution gradient was: Time 0-1 min: 10% B; 1-6 min: 10%-95% B; 6-8.5 min: 95% B; 8.5-9 min: 95%-10% B; 9-10 min: 10% B. Mass spectrometry was in positive scanning mode from 600-1100 m/z. The peak of the molecular ion of the lipids was integrated in the extracted ion chromatography (XIC) using Xcalibur software (Thermo Fisher). The relative peak area compared to T=0, after normalization by the peak area of the internal standard, was used as the percentage of the lipid remaining at each time point. T1/2 values were calculated using the first-order decay model.

[3] = In vivo biodegradability assay (lipid concentration in mouse liver by LC-MS); parameters: species or system mice; conditions: BLOQ: below level of quantification; for In vivo degradability (ng tissue) at 48 h 0.1 mpk: Table 1, 0.1 mpk; for In vivo degradability (ng/tissue) at 48 h 0.1 mpk: Table 2, 0.1 mpk
Protocol: In vivo biodegradability assay was performed to assess the biodegradability of lipids in the LNP. Briefly, mice were injected with either 0.1 or 0.03 mg/Kg dose and after 24 or 48 hours mice livers were collected. To measure the concentration of lipids in the mouse liver, liver samples were homogenized in appropriate buffer in 1-10 dilution and mixed with the same amount of stabilized plasma. The samples were then mixed with organic solvents spiked with internal standard to precipitate proteins. After centrifugation, supernatant was diluted further with organic solvent before sample analysis by LC-MS. In LC-MS analysis, positive electrospray ionization was used, and multiple reaction monitoring (MRM) parameters were set up to specifically target the lipid analyte and internal standard. Calibration standards were prepared in stabilized plasma and mixed with same amount of homogenization buffer before protein precipitation. Quality control samples with known amounts of lipid was prepared in blank liver homogenate to monitor the precision and accuracy of the assay.

Compound	Plasma half life % remaining after 2 h ([2]; Table 2, 37° C.)	In vivo degradability (ng/tissue) at 48 h 0.03 mpk ([3]; Table 1, 0.03 mpk)	In vivo degradability (ng tissue) at 48 h 0.1 mpk [3]	In vivo degradability (ng/tissue) at 48 h 0.03 mpk ([3]; Table 2, 0.03 mpk)	In vivo degradability (ng/tissue) at 48 h 0.1 mpk [3]	Plasma half life % remaining after 2 h ([2]; Table 1, 37° C.)	EPO exprssn (ng/mL) 0.03 mpk ([1]; Table 1)	EPO exprssn (ng/mL) 0.1 mpk ([1]; Table 1)	EPO exprssn (ng/mL) 0.1 mpk ([1]; Table 2)
CC(CC1CCCCC1)C(=O)OCC(COC(=O)C(C)CC1CCCCC1)OC(=O)CCCN(CCCC(=O)OC(COC(=O)C(C)CC1CCCCC1)COC(=O)C(C)CC1CCCCC1)C(=O)SCCCN(C)C (stereo not shown) [LIPID 17, ((4,4′-((((3-(Dimethylamino)propyl)thio)carbonyl)-azanediyl)bis(butanoyl))bis(oxy))bis(propane-2,1,3-triyl) tetrakis(3-cyclohexyl-2-methylpropanoate)]	100%	BLOQ	BLOQ	BLOQ	BLOQ	–	1082 ng/mL	1555 ng/mL	1082 ng/mL
CCC1CCC(C(=O)OCC(COC(=O)C2CCC(CC)CC2)OC(=O)CCCN(CCCC(=O)OC(COC(=O)C2CCC(CC)CC2)COC(=O)C2CCC(CC)CC2)C(=O)SCCCN(C)C)CC1 (stereo not shown) [LIPID 16, ((4,4′-((((3-(Dimethylamino)propyl)thio)carbonyl)azanediyl)bis(butanoyl))bis(oxy))bis(propane-2,1,3-triyl) tetrakis(4-ethylcyclohexane-1-carboxylate)]	40%	<340 ng/tissue	<340 ng tissue	<340 ng/tissue	<340 ng/tissue	40%	2088 ng/mL	6358 ng/mL	2088 ng/mL
CCCCCCCC(=O)OCC(COC(=O)CCCCCCC)OC(=O)CCCC(CCCC(=O)OC(COC(=O)CCCCCCC)COC(=O)CCCCCCC)SC(=O)CCCN(C)C [LIPID 4, bis(1,3-bis(Octanoyloxy)propan-2-yl) 5-((4-(dimethylamino)butanoyl)thio)nonanedioate]	13%	BLOQ	BLOQ	BLOQ	BLOQ	13%	–	–	–
CCCCCCCCC(=O)OCC(COC(=O)CCCCCCCC)OC(=O)CCCC(CCCC(=O)OC(COC(=O)CCCCCCCC)COC(=O)CCCCCCCC)OC(=O)CCCN(C)C.Cl [LIPID 3, bis(1,3-bis(Nonanoyloxy)propan-2-yl) 5-((4-(dimethylamino)butanoyl)oxy)nonanedioate HCl Salt]	15%	BLOQ	BLOQ	BLOQ	BLOQ	15%	–	–	–

Continued, in another order:

Plasma half life % remaining after 2 h ([2]; Table 2, 37° C.)	In vivo degradability (ng/tissue) at 48 h 0.03 mpk ([3]; Table 1, 0.03 mpk)	In vivo degradability (ng tissue) at 48 h 0.1 mpk [3]	In vivo degradability (ng/tissue) at 48 h 0.03 mpk ([3]; Table 2, 0.03 mpk)	In vivo degradability (ng/tissue) at 48 h 0.1 mpk [3]	Plasma half life % remaining after 2 h ([2]; Table 1, 37° C.)	Compound	EPO exprssn (ng/mL) 0.03 mpk ([1]; Table 1)	EPO exprssn (ng/mL) 0.1 mpk ([1]; Table 1)	EPO exprssn (ng/mL) 0.1 mpk ([1]; Table 2)
100%	<340 ng/tissue	847 ng tissue	<340 ng/tissue	847 ng/tissue	–	CCCCCC(C)(C)C(=O)OCC(COC(=O)C(C)(C)CCCCC)OC(=O)CCCN(CCCC(=O)OC(COC(=O)C(C)(C)CCCCC)COC(=O)C(C)(C)CCCCC)C(=O)SCCCN(C)C [LIPID 19, ((4,4′-((((3-(Dimethylamino)propyl)thio)carbonyl)-azanediyl)bis(butanoyl))bis(oxy))bis(propane-2,1,3-triyl) tetrakis(2,2-dimethylheptanoate)]	–	–	–
100%	–	–	<340 ng/tissue	<340 ng/tissue	–	CC1CCC(CCC(=O)OCC(C)(COC(=O)CCC2CCC(C)CC2)COC(=O)CCN(CCC(=O)OCC(C)(COC(=O)CCC2CCC(C)CC2)COC(=O)CCC2CCC(C)CC2)C(=O)SCCCN(C)C)CC1 (stereo not shown) [LIPID 20]	–	–	–
57%	BLOQ	BLOQ	BLOQ	BLOQ	57%	CN(C)CCCSC(=O)N(CCCCCC(=O)OC(COC(=O)CCC1CCCCC1)COC(=O)CCC1CCCCC1)CCCCCC(=O)OC(COC(=O)CCC1CCCCC1)COC(=O)CCC1CCCCC1 [LIPID 12, ((6,6′-((((3 (dimethylamino)propyl)thio)carbonyl)azanediyl)bis(hexanoyl))bis(oxy))bis(propane-2,1,3-triyl) tetrakis(3-cyclohexylpropanoate)]	–	–	–
40%	BLOQ	BLOQ	BLOQ	BLOQ	40%	CN(C)CCCSC(=O)N(CCCC(=O)OC(COC(=O)CCCC1CCCCC1)COC(=O)CCCC1CCCCC1)CCCC(=O)OC(COC(=O)CCCC1CCCCC1)COC(=O)CCCC1CCCCC1 [LIPID 11, ((4,4′-((((3-(Dimethylamino)propyl)thio)carbonyl)azanediyl)bis(butanoyl))bis(oxy))bis(propane-2,1,3-triyl) tetrakis(4-cyclohexylbutanoate)]	–	–	–
40%	BLOQ	BLOQ	BLOQ	BLOQ	40%	CCCCCCCCC(=O)OCC(COC(=O)CCCCCCCC)OC(=O)CCC(CCC(=O)OC(COC(=O)CCCCCCCC)COC(=O)CCCCCCCC)OC(=O)CCCN(C)C [LIPID 5, bis(1,3-bis(Nonanoyloxy)propan-2-yl) 4-((4-(dimethylamino)butanoyl)oxy)heptanedioate]	–	–	–
